Measured values: the NIST ThermoML archive (doi:10.1016/j.jct.2015.09.030)

Assay: xn = mol fraction of the nth substance listed
Conditions: 100 kPa, Liquid; for mass density: Vibrating tube method; for viscosity: Falling or rolling sphere viscometry

CCCCCCCCCCCCCC[P+](CCCCCC)(CCCCCC)CCCCCC.[Cl-] [trihexyl(tetradecyl)phosphonium chloride] + CO
Conditions | mass density [kg/m3] | viscosity [mPa·s]
290.15 K, x1 = 0.0156 | 815.9 | –
290.15 K, x1 = 0.0351 | 832.7 | –
290.15 K, x1 = 0.056 | 845.2 | –
290.15 K, x1 = 0.0811 | 856.7 | –
290.15 K, x1 = 0.1271 | 869.2 | –
290.15 K, x1 = 0.2092 | 880.2 | –
290.15 K, x1 = 0.3681 | 889.1 | –
290.15 K, x1 = 0.4851 | 891.6 | –
290.15 K, x1 = 0.6453 | 894.2 | –
290.15 K, x1 = 0.7844 | 895.8 | –
290.15 K, x1 = 0.8997 | 896.8 | –
290.15 K, x1 = 1 | 897.5 | –
293.15 K, x1 = 0.0156 | 813.3 | –
293.15 K, x1 = 0.0351 | 830.4 | –
293.15 K, x1 = 0.056 | 842.9 | –
293.15 K, x1 = 0.0811 | 854.5 | –
293.15 K, x1 = 0.1271 | 867.2 | –
293.15 K, x1 = 0.2092 | 878.2 | –
293.15 K, x1 = 0.3681 | 887.2 | –
293.15 K, x1 = 0.4851 | 889.9 | –
293.15 K, x1 = 0.6453 | 892.5 | –
293.15 K, x1 = 0.7844 | 894 | –
293.15 K, x1 = 0.8997 | 895.1 | –
293.15 K, x1 = 1 | 895.8 | –
295.15 K, x1 = 0.0156 | 811.2 | 1.033
295.15 K, x1 = 0.0351 | 828.8 | 1.798
295.15 K, x1 = 0.056 | 841.4 | 3.34
295.15 K, x1 = 0.0811 | 853.1 | 6.279
295.15 K, x1 = 0.1271 | 865.8 | 15.65
295.15 K, x1 = 0.2092 | 876.9 | 45.36
295.15 K, x1 = 0.3681 | 885.9 | 173
295.15 K, x1 = 0.4851 | 888.9 | 401.5
295.15 K, x1 = 0.6453 | 891.4 | 820.4
295.15 K, x1 = 0.7844 | 892.9 | 1285
295.15 K, x1 = 0.8997 | 894 | 1687
295.15 K, x1 = 1 | 894.6 | 1996
298.15 K, x1 = 0.0156 | 809.1 | 0.988
298.15 K, x1 = 0.0351 | 826.4 | 1.695
298.15 K, x1 = 0.056 | 839.2 | 3.092
298.15 K, x1 = 0.0811 | 851 | 5.794
298.15 K, x1 = 0.1271 | 863.8 | 14.29
298.15 K, x1 = 0.2092 | 875 | 40.2
298.15 K, x1 = 0.3681 | 884 | 149.2
298.15 K, x1 = 0.4851 | 887.1 | 339.2
298.15 K, x1 = 0.6453 | 889.7 | 670
298.15 K, x1 = 0.7844 | 891.2 | 1046
298.15 K, x1 = 0.8997 | 892.1 | 1392
298.15 K, x1 = 1 | 892.8 | 1683
303.15 K, x1 = 0.0156 | 804.8 | 0.911
303.15 K, x1 = 0.0351 | 822.4 | 1.542
303.15 K, x1 = 0.056 | 835.4 | 2.704
303.15 K, x1 = 0.0811 | 847.4 | 5.089
303.15 K, x1 = 0.1271 | 860.4 | 12.28
303.15 K, x1 = 0.2092 | 871.8 | 33.24
303.15 K, x1 = 0.3681 | 880.9 | 116.2
303.15 K, x1 = 0.4851 | 884 | 255.5
303.15 K, x1 = 0.6453 | 886.7 | 486.4
303.15 K, x1 = 0.7844 | 888.2 | 744.5
303.15 K, x1 = 0.8997 | 889.1 | 978.6
303.15 K, x1 = 1 | 889.8 | 1174
308.15 K, x1 = 0.0156 | 800.5 | 0.842
308.15 K, x1 = 0.0351 | 818.5 | 1.407
308.15 K, x1 = 0.056 | 831.6 | 2.287
308.15 K, x1 = 0.0811 | 843.9 | 4.496
308.15 K, x1 = 0.1271 | 857.1 | 10.64
308.15 K, x1 = 0.2092 | 868.5 | 27.72
308.15 K, x1 = 0.3681 | 877.8 | 90.86
308.15 K, x1 = 0.4851 | 881 | 197.3
308.15 K, x1 = 0.6453 | 883.7 | 363.3
308.15 K, x1 = 0.7844 | 885.3 | 543.1
308.15 K, x1 = 0.8997 | 886.2 | 700
308.15 K, x1 = 1 | 886.9 | 824.1
313.15 K, x1 = 0.0156 | 796.3 | 0.79
313.15 K, x1 = 0.0351 | 814.5 | 1.289
313.15 K, x1 = 0.056 | 827.9 | 1.901
313.15 K, x1 = 0.0811 | – | 4.071
313.15 K, x1 = 0.1271 | – | 9.437
313.15 K, x1 = 0.2092 | 865.3 | 23.32
313.15 K, x1 = 0.3681 | 874.5 | 81.39
313.15 K, x1 = 0.4851 | 878.6 | 151.5
313.15 K, x1 = 0.6453 | 880.8 | 271.4
313.15 K, x1 = 0.7844 | 882.6 | 396.8
313.15 K, x1 = 0.8997 | 883.2 | 505.7
313.15 K, x1 = 1 | 883.9 | 593.7
